Test results as given in US20230099344A1, “COMPOUNDS AND METHODS FOR THE TARGETED DEGRADATION OF IRAK-4” (Arvinas Operations, Inc., priority 2021, published 2023).

Biological target: T1, IRAK-4 (Homo sapiens, UniProt Q9NWZ3)
T1 sequence (Q9NWZ3 1-460): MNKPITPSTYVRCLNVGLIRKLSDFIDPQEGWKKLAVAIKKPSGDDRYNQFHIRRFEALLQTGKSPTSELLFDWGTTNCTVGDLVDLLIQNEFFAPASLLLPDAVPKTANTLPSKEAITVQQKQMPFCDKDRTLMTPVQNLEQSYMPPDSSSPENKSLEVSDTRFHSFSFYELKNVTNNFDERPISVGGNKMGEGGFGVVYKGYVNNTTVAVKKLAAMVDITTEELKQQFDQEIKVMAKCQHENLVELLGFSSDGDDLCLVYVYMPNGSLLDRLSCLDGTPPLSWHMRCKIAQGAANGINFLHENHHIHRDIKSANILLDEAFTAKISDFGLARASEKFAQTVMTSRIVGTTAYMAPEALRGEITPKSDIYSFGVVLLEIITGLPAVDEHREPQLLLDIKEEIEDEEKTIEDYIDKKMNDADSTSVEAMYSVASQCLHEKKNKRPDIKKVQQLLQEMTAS
Assay: IRAK-4 ELISA, PBMC degradation
Assay type: cell-based
Design: endogenous in cells; host or cells: PBMC
Details: treated overnight
Protocol: Reagents: Human IRAK-4 Matched Antibody Pair Kit (Abcam ab218182) and ELISA Accessory Pack (Abcam ab210905).
Cell Treatment and Lysis:
1. OCI-Ly10: 200,000 cells are seeded at 1×10^6/ml in 96-well U-bottom plates 200 ul per well, treated with compound the same day. Incubate overnight. 2. PBMC: 800,000 cells are seeded at 2×10^6/ml in 96-well U-bottom deep-well plates, 400 ul per well, treated with compound the same day. Incubate overnight.
Cell lysate is collected and analyzed by ELISA for IRAK-4 levels.

Structure (SMILES)	DC50 [nM]	Dmax [%]	PBMC DC90	PBMC Dmax
O=C1CCC(N2C(=O)c3ccc(N4CCC(CN5CCC(n6cc7cc(NC(=O)c8cnn9cccnc89)c(C8CC8)cc7n6)CC5)CC4)cc3C2=O)C(=O)N1 (stereo not drawn) [Example 186]	1 to 5	≥ 90	A (A represents a DC90 value <10.0 nM)	–
CC(C)Oc1cc2nn(C3CCN(CC(F)(F)C4CN(c5ccc6c(c5)C(=O)N(C5CCC(=O)NC5=O)C6=O)C4)CC3)cc2cc1NC(=O)c1cnn2cccnc12 (stereo not drawn) [Example 147]	1 to 5	≥ 90	B (B represents a DC90 value ≥10.0 nM and <25.0 nM)	–
O=C1CCC(N2C(=O)c3ccc(N4CCC[C@@H](CN5CCC(n6cc7cc(NC(=O)c8cnn9cccnc89)c(OCC8CC8)cc7n6)CC5)C4)cc3C2=O)C(=O)N1 (stereo partly drawn) [Example 175]	1 to 5	≥ 90	B (B represents a DC90 value ≥10.0 nM and <25.0 nM)	–
O=C1CCC(N2C(=O)c3ccc(N4CC(N(CC(F)F)C5CCC(n6cc7cc(NC(=O)c8cnn9cccnc89)c(OCC8CC8)cc7n6)CC5)C4)cc3C2=O)C(=O)N1 (stereo not drawn) [Example 326]	1 to 5	≥ 90	B (B represents a DC90 value ≥10.0 nM and <25.0 nM)	–
C[C@H](Oc1cc2nn(C3CCN(CC4(F)CN(c5ccc6c(c5)C(=O)N(C5CCC(=O)NC5=O)C6=O)C4)CC3)cc2cc1NC(=O)c1cnn2cccnc12)C1CC1 (stereo partly drawn) [Example 264]	1 to 5	70 to 80	B (B represents a DC90 value ≥10.0 nM and <25.0 nM)	–
O=C1CCC(N2C(=O)c3ccc(N4CC(F)(CN5CCC(N6Cc7cc(NC(=O)c8cnn9cccnc89)c(OC8CC8)cc7C6=O)CC5)C4)cc3C2=O)C(=O)N1 (stereo not drawn) [Example 85]	1 to 5	80 to 90	C (C represents a DC90 value ≥25.0 nM and <50 nM)	–
O=C1CCC(NC(=O)c2ccc(N3CC(F)(CN4CCC(n5cc6cc(NC(=O)c7cnn8cccnc78)c(OCC7CC7)cc6n5)CC4)C3)cc2F)C(=O)N1 (stereo not drawn) [Example 291]	1 to 5	≥ 90	B (B represents a DC90 value ≥10.0 nM and <25.0 nM)	–
O=C1CCC(N2C(=O)c3ccc(N4CC(F)(CN5CCC(N6Cc7cc(NC(=O)c8cnn9cccnc89)c(OCC8CC8)cc7C6=O)CC5)C4)cc3C2=O)C(=O)N1 (stereo not drawn) [Example 89]	1 to 5	80 to 90	B (B represents a DC90 value ≥10.0 nM and <25.0 nM)	–
O=C1CCC(N2C(=O)c3cc(F)c(N4CC(F)(CN5CCC(n6cc7cc(NC(=O)c8cnn9cccnc89)c(OCC8CC8)cc7n6)CC5)C4)cc3C2=O)C(=O)N1 (stereo not drawn) [Example 229]	5 to 10	80 to 90	B (B represents a DC90 value ≥10.0 nM and <25.0 nM)	–
O=C1CCC(N2C(=O)c3ccc(N4CCO[C@H](CN5CCC(n6cc7cc(NC(=O)c8cnn9cccnc89)c(OCC8CC8)cc7n6)CC5)C4)cc3C2=O)C(=O)N1 (stereo partly drawn) [Example 177]	< 1	≥ 90	A (A represents a DC90 value <10.0 nM)	–
CC(C)Oc1cc2nn([C@H]3CC[C@H](N(C)CC4(F)CN(c5ccc6c(c5)C(=O)N(C5CCC(=O)NC5=O)C6=O)C4)CC3)cc2cc1NC(=O)c1cnn2cccnc12 (stereo partly drawn) [Example 347]	1 to 5	80 to 90	B (B represents a DC90 value ≥10.0 nM and <25.0 nM)	–
O=C1CCC(N2C(=O)c3ccc(N4CC(F)(CN5CCC(N6Cc7cc(NC(=O)c8cnn9cccnc89)c(N8CCOCC8)cc7C6=O)CC5)C4)cc3C2=O)C(=O)N1 (stereo not drawn) [Example 101]	1 to 5	70 to 80	B (B represents a DC90 value ≥10.0 nM and <25.0 nM)	–
CC(C)Oc1cc2c(cc1NC(=O)c1cnn3cccnc13)CN(C1CCN(CC3CCC4(CC3)CN(c3ccc5c(c3)C(=O)N(C3CCC(=O)NC3=O)C5=O)C4)CC1)C2=O (stereo not drawn) [Example 81]	< 1	≥ 90	A (A represents a DC90 value <10.0 nM)	–
C[C@@H](Oc1cc2nn(C3CCN(CC4(F)CN(c5ccc6c(c5)C(=O)N(C5CCC(=O)NC5=O)C6=O)C4)CC3)cc2cc1NC(=O)c1cnn2cccnc12)C1CC1 (stereo partly drawn) [Example 223]	1 to 5	70 to 80	C (C represents a DC90 value ≥25.0 nM and <50 nM)	–
CC(C)Oc1cc2nn(C3CCN(CC4(F)CN(c5ccc6c(c5)C(=O)N(C5CCC(=O)NC5=O)C6=O)C4)CC3)cc2cc1NC(=O)c1cnn2ccc(N3CCOCC3)nc12 (stereo not drawn) [Example 190]	≥ 10	≥ 90	D (D represents a DC90 value ≥50 nM)	–
CCN(C1CCN(c2ccc3c(c2)C(=O)N([C@@H]2CCC(=O)NC2=O)C3=O)CC1)[C@H]1C[C@H](n2cc3cc(NC(=O)c4cnn5cccnc45)c(OC(C)C)cc3n2)C1 [Example 377, N-(2-((1r,3r)-3-((1-(2-(2,6-dioxopiperidin-3-yl)-1,3-dioxoisoindolin-5-yl)piperidin-4-yl)(ethyl)amino)cyclobutyl)-6-isopropoxy-2H-indazol-5-yl)pyrazolo[1,5-a]pyrimidine-3-carboxamide]	1 to 5	–	B (B represents a DC90 value ≥10.0 nM and <25.0 nM)	A (A represents a Dmax value ≥90)

More lines, main results first:

DC50 [nM]	Dmax [%]	PBMC DC90	Structure (SMILES)	PBMC Dmax
< 1	≥ 90	A (A represents a DC90 value <10.0 nM)	CC(C)Oc1cc2nn([C@H]3CC[C@H](NCC4(F)CN(c5ccc6c(c5)C(=O)N(C5CCC(=O)NC5=O)C6=O)C4)CC3)cc2cc1NC(=O)c1cnn2cccnc12 (stereo partly drawn) [Example 348]	–
< 1	≥ 90	A (A represents a DC90 value <10.0 nM)	CC(C)Oc1cc2nn(C3CCN(CC4(F)CN(c5cc6c(cc5F)C(=O)N(C5CCC(=O)NC5=O)C6=O)C4)CC3)cc2cc1NC(=O)c1cnn2cccnc12 (stereo not drawn) [Example 189]	–
< 1	≥ 90	A (A represents a DC90 value <10.0 nM)	CC(C)Oc1cc2c(cc1NC(=O)c1cnn3cccnc13)CN([C@H]1CC[C@H](N3CCN(c4ccc5c(c4)CN(C4CCC(=O)NC4=O)C5=O)CC3)CC1)C2=O (stereo partly drawn) [Example 273, N-(2-((1r,4r)-4-(4-(2-(2,6-dioxopiperidin-3-yl)-1-oxoisoindolin-5-yl)piperazin-1-yl)cyclohexyl)-6-isopropoxy-1-oxoisoindolin-5-yl)pyrazolo[1,5-a]pyrimidine-3-carboxamide]	–
< 1	≥ 90	A (A represents a DC90 value <10.0 nM)	O=C1CCC(N2C(=O)c3ccc(N4CCO[C@@H](CN5CCC(n6cc7cc(NC(=O)c8cnn9cccnc89)c(OCC8CC8)cc7n6)CC5)C4)cc3C2=O)C(=O)N1 (stereo partly drawn) [Example 176]	–
< 1	≥ 90	A (A represents a DC90 value <10.0 nM)	O=C1CCC(N2C(=O)c3ccc(N4CC(F)(CN5CCC(n6cc7cc(NC(=O)c8cnn9cccnc89)c(C(F)F)cc7n6)CC5)C4)cc3C2=O)C(=O)N1 (stereo not drawn) [Example 408, N-[6-(difluoromethyl)-2-[1-[[1-[2-(2,6-dioxo-3-piperidyl)-1,3-dioxo-isoindolin-5-yl]-3-fluoro-azetidin-3-yl]methyl]-4-piperidyl]indazol-5-yl]pyrazolo[1,5-a]pyrimidine-3-carboxamide]	–
< 1	≥ 90	A (A represents a DC90 value <10.0 nM)	O=C1CCC(N2Cc3cc(N4CC(F)(CN5CCC(n6cc7cc(NC(=O)c8cnn9cccnc89)c(OCC8CC8)cc7n6)CC5)C4)cc(F)c3C2=O)C(=O)N1 (stereo not drawn) [Example 420, N-[6-(cyclopropylmethoxy)-2-[1-[[1-[2-(2,6-dioxo-3-piperidyl)-7-fluoro-1-oxo-isoindolin-5-yl]-3-fluoro-azetidin-3-yl]methyl]-4-piperidyl]indazol-5-yl]pyrazolo[1,5-a]pyrimidine-3-carboxamide]	–
< 1	≥ 90	A (A represents a DC90 value <10.0 nM)	COc1cc(N2CCC(CN3CCC(n4cc5cc(NC(=O)c6cnn7cccnc67)c(OCC6CC6)cc5n4)CC3)CC2)cc2c1C(=O)N(C1CCC(=O)NC1=O)C2 (stereo not drawn) [Example 132]	–
< 1	70 to 80	A (A represents a DC90 value <10.0 nM)	COc1cc2nn(C3CCN(CC4(F)CN(c5ccc6c(c5)C(=O)N(C5CCC(=O)NC5=O)C6=O)C4)CC3)cc2cc1NC(=O)c1cnn2ccc(N3CCOCC3)nc12 (stereo not drawn) [Example 236]	–
< 1	≥ 90	A (A represents a DC90 value <10.0 nM)	CC(C)Oc1cc2c(cc1NC(=O)c1cnn3cccnc13)CN(C[C@@H](F)C1CCN(CC3CCN(c4ccc5c(c4)C(=O)N(C4CCC(=O)NC4=O)C5=O)CC3)CC1)C2=O (stereo partly drawn) [Example 18]	–
< 1	80 to 90	A (A represents a DC90 value <10.0 nM)	O=C1CCC(N2C(=O)c3ccc(N4CC(CN5CCC(N6Cc7cc(NC(=O)c8cnn9cccnc89)c(OCC(F)F)cc7C6=O)CC5)C4)cc3C2=O)C(=O)N1 (stereo not drawn) [Example 103]	–
< 1	–	A (A represents a DC90 value <10.0 nM)	O=C1CCC(N2Cc3cc(N4CC(F)(CN5CCC(n6cc7cc(NC(=O)c8cnn9cccnc89)c(OC8CCC8)cc7n6)CC5)C4)ccc3C2=O)C(=O)N1 (stereo not drawn) [Example 216]	B (B represents a Dmax value ≥80 and <90)
